# Counter-ions that a name gives are not always drawn.
# Legend:
# [1] = Long-term stability test of Crystalline Form I, storage at 25° C./60% RH (open); type: physicochemical; conditions: for Appearance / DSC / Purity / XRPD: 25° C./60% RH (open)
# Experimental: (§1) X-ray powder diffraction (XRPD) patterns were obtained on a Bruker D8 Advance. A CuK source (=1.54179 angstrom) operating minimally at 40 kV and 40 mA scans each sample between 3 and 40 degrees 2-theta. The scanning rate is 10 degrees 2-theta per minute and the sample rotation speed is 15 revolutions per minute.
# (§2) Differential scanning calorimetry analysis was carried out on a TA Instrument DSC unit (TA Q2000). Samples were heated in non-hermetic aluminum pans from ambient to 260° C. at 10° C./min.
# (§3) Crystalline Form I was not changed after storage at 40° C./75% RH for 6 months, or storage at 25° C./60% RH for 36 months.
# [2] = Accelerated stability test of Crystalline Form I, storage at 40° C./75% RH (open); type: physicochemical; conditions: for Appearance / DSC / Purity / XRPD: 40° C./75% RH (open)
# Experimental: as §1, §2, §3
compound,measurement,setting,value
"C[C@]12CC[C@H](OC(=O)N3CCNCC3)C[C@H]1CC[C@@H]1[C@@H]2CC[C@]2(C)[C@@H](c3ccc(=O)oc3)CC[C@]12O [Crystalline Form I, (3S,5R,8R,9S,10S,13R,14S,17R)-14-hydroxy-10,13-dimethyl-17-(2-oxo-2H-pyran-5-yl)hexadecahydro-1H-cyclopenta[a]phenanthren-3-yl piperazine-1-carboxylate maleate]",Appearance,[1]; 0 month,White powder
same,DSC,[1]; 0 month,233.84° ° C.
same,Purity,[1]; 0 month,99.86%
same,XRPD,[1]; 0 month,Form I
same,Appearance,[1]; 12 months,White powder
same,DSC,[1]; 12 months,234.41° ° C.
same,Purity,[1]; 12 months,99.87%
same,XRPD,[1]; 12 months,Form I
same,Appearance,[1]; 24 months,White powder
same,DSC,[1]; 24 months,232.9° ° C.
same,Purity,[1]; 24 months,99.91%
same,XRPD,[1]; 24 months,Form I
same,Appearance,[1]; 36 months,White powder
same,DSC,[1]; 36 months,233.6° ° C.
same,Purity,[1]; 36 months,100.00%
same,XRPD,[1]; 36 months,Form I
same,Change of crystalline form after storage,[1]; storage at 25° C./60% RH for 36 months,not changed
same,Appearance,[2]; 0 month,White powder
same,DSC,[2]; 0 month,233.84° ° C.
same,Purity,[2]; 0 month,99.86%
same,XRPD,[2]; 0 month,Form I
same,Appearance,[2]; 6 months,White powder
same,DSC,[2]; 6 months,234.28° ° C.
same,Purity,[2]; 6 months,99.91%
same,XRPD,[2]; 6 months,Form I
same,Change of crystalline form after storage,[2]; storage at 40° C./75% RH for 6 months,not changed
